In patent publication US10188633B2, “Identification of small molecules that facilitate therapeutic exon skipping” (The Regents of the University of California, priority 2011, dated 2019):

What was measured:
DMD exon 31 = conditions: cited from earlier work
[1] = cited from earlier work
[2] = tested on: human DMD exon 50 GFP based reporter; test: Secondary screening, 12 or 16 point titrations on the DMD exon 50 reporter cell line with or without AON6; format: cell-based, mouse
Method: 12 or 16 point titrations of compounds were added to the Ex50-GFP and C2C12 myoblasts either with or without AON6.
(§1) A stable clone was generated from C2C12 cells transfected with a human exon 50 DMD GFP reporter (ex50GFP) that has been previously described. Ex50GFP reporter myoblasts were seeded into uncoated 384 well plates and were incubated for 4 hours either with or without 300 nM of 2′-O-methyl phosphorothioate AON6 [5′[…] 3′ (SEQ ID NO:1)] targeting the human exon 50 splice donor site. Cells were transfected with AON6 using the FUGENE (Roche) transfection reagent per manufacturer's instructions. Following AON6 incubation, each component of the BioMol library (n=503) was screened at 10 uM concentration with a final concentration of the DMSO carrier being 1%. Forty-eight hours later fluorescence was measured using the MicroXpress high content imager and analyzed using MetaXpress. Immediately preceding imaging, DNA was stained with Hoescht for 30 min. The BioMol screen without AO (−AO) was performed in 6 replicates, and the with AO (+AO) screen was performed in 3 replicates. For the screen analysis raw fluorescence values were normalized to carrier controls present on each plate by subtracting the values. Negative fluorescence values were set to 0. The data from each compound were averaged from all replicates. For secondary screening by 12 or 16 point dose response, Ex50GFP myoblasts or C2C12 cells without the reporter were seeded on uncoated 384 well plates. A sub-optimal dose of AON6 targeting DMD exon 50 was added for 4 hours. Following the 4 hour incubation, a compound dilution was added (beginning at 100 uM with 1:1 dilutions) for either 12 or 16 points. After a 48 hour incubation with compounds, DNA was stained with Hoescht, and fluorescence determined using the high content imager and analyzed with MetaXpress.

[3] = tested on: Ca2+-ATPase of sarcoplasmic reticulum; conditions: at 0.5-2 μM ATP; cited from earlier work
[4] = tested on: human DMD exon 50 GFP based reporter; test: BioMol high throughput screen in Ex50-GFP reporter C2C12 myoblasts, with or without AON6; format: cell-based, mouse; conditions: With AON6 screen, compound 10 uM
Description: Small molecule libraries were screened for exon skipping promoting activity in C2C12 myoblasts expressing a human DMD exon 50 GFP based reporter. […] In the reporter cells, successful skipping of DMD exon 50 creates in-frame GFP expression. Number of cells that were fluorescing was quantified using a high content cell imager in 384 well plate format. Fluorescence was normalized by subtracting the average fluorescence value of the carrier (DMSO) controls. Fluorescence readouts are plotted for the BioMol library screen both with (+AO) and without (−AO) from Source Plate 1 (containing the Orphan Ligand, Ion Channel, Enzyme Inhibitor, and Endocannabanoid libraries, n=300). Each point for the DMSO controls, all compounds, and the Top 5% from Source Plate 1 (n=15) represents the average normalized fluorescence of 6 replicates in the −AO screen and 3 replicates in the +AO screen. […] Individual points for dantrolene are plotted with the bold horizontal line indicating the median. The short horizontal lines interspersed among the data points indicate 1, 2, and 3 standard deviations away from the DMSO treatment mean fluorescence.
In contrast to prior screens aimed at identifying small molecules which impact exon skipping, our screen is unique at least because it relies on robust quantitation of a skipping reporter in the context of a muscle lineage cell in the presence and absence of suboptimal AO. These screens were performed using a mouse muscle cell line (C2C12) expressing a human DMD exon 50 GFP based reporter selected to minimize experimental variation and sensitivity in the context of an automated and quantitative fluorescent scanning system.
AO was added prior to small molecule incubation in an effort to identify molecules that facilitate AO skipping rather than AO delivery. The fluorescence induced by each compound was normalized to a vehicle controls per plate to correct for plate to plate variability. Fluorescence was averaged across replicate plates (n=6 without AO screen, n=3 with AO screen). Compounds were rank ordered based on average intensity of fluorescence and difference between the without AO and with AO screen (FIG. 1 and Table 2).
as §1, with “hours.” for “hours. Following the 4 hour incubation, a compound dilution was added (beginning at 100 uM with 1:1 dilutions) for either 12 or 16 points. After a 48 hour incubation with compounds, DNA was stained with Hoescht, and fluorescence determined using the high content imager and analyzed with MetaXpress.”

[5] = 48 h, normalized to DMSO carrier controls

CCN1/C(=C/C(C)=O)Sc2ccc(OC)cc21 [TG003]
mutant exon 31 skipping (DMD exon 31): increased mutant exon 31 skipping

O=C1CN(/N=C/c2ncc(-c3ccc(Br)cc3)o2)C(=O)N1 [azumolene]
water solubility relative to dantrolene [1]: more water soluble than dantrolene

CYCLOPIAZONIC ACID
increase in fluorescence in the Ex50-GFP+AO compared to the reporter line without AO ([2]; 12 or 16 point titrations from 100 uM, positivity criterion (FIG. 5 legend: >10%)): 10%
dose response in Ex50-GFP reporter ([2]; 12 or 16 point titrations with AON6): evidence of a dose response
amount completely inhibiting the enzyme [3]: Induces the release of intracellular stored Ca2+, without increasing IP3 levels, via inhibition of endoplasmic reticulum Ca2+− ATPase. It is a highly specific inhibitor of the Ca2+− ATPase of sarcoplasmic reticulum, completely inhibiting the enzyme at 6-8 nmol/mg protein (at 0.5-2 μM ATP).
Fluorescence Plate 1 ([4]; 48 h, fluorescence normalized by subtracting DMSO carrier controls): 29.57
Fluorescence Plate 2 [4, 5]: 33.40
Fluorescence Plate 3 [4, 5]: 17.24
Average Fluorescence (n = 3) ([4]; average of 3 replicate plates): 26.74
